From patent publication US11484576B2, “Methods of promoting corticospinal neuronal outgrowth in neuronal lesions using a pro-regenerative human osteopontin fragment” (THE CHILDREN'S MEDICAL CENTER CORPORATION, priority 2017, dated 2022) come the findings set out here.

In one series the test system is optic nerve axons. In words: Optic nerve axon regeneration after optic nerve crush. It is filed as in vivo, mouse. The procedure:
The effects of various forms of active OPN were assessed for their capacity to promote optic nerve axon regeneration in an induced injury model. To express the various forms of active OPN AAVs expressing all forms of mouse OPN were injected intravitreally in anesthetized mice. To induce the injury model the optic nerves were crushed using a pair of forceps two weeks after intravitreal injection. Recombinant proteins (CNTF, IGF1, BDNF) were injected at 0 and 7 days after the crush (1 ul each, 1 ug/ul). Fluorescent cholera toxin beta subunit (CTB-555) was injected intravitreally 12 days after crush to trace the axons before the tissues were fixed 14 days after crush, sectioned and imaged.

In a further series the test system is p-IGFRβ. Nature of the series: phospho-IGFRβ immunostaining in corticospinal neurons after cortical injection of recombinant proteins, T10 lateral hemisection. It is filed as in vivo, mouse. To be noted: intact or axotomized mature CSNs; recombinant protein alone. From the text:
(§1) However, it is unknown whether IGF1 triggers similar signaling activation in adult CSNs and, if so, whether it could be altered by OPN treatment. Thus CSNs were labeled by spinal injection of HiRet-GFP, performed T10 lateral hemisection, and then bilaterally injected recombinant IGF, OPN or OPN/IGF1 proteins were bilaterally injected into the cortex (FIG. 5A). In 3 days, the cortical sections from both injured and intact sides of adult mice were immunostained for three factors. Anti-IGFR, anti-phospho-IGFRβ, an indicator for the activation of the IGF-1 mediated signaling pathways (Hernandez-Sanchez et al., 1995; Siddle, 2012), and anti-phospho-S6 (p-S6), an established marker of mTOR activation, one of the downstream target of IGF1 mediated signaling pathways (Liu et al., 2010; Pollak, 2008).
(§2) Virus and Protein Injection. […]
(§3) Immunohistochemistry and Imaging. […] To quantify and compare fluorescence intensity of IGFR, pIGFRβ and pS6 in GFP+ CSNs (FIGS. 2C-2E), CST axons in the dorsal funiculus (FIG. 3G) and CD68 staining (FIG. 10F) and corticofugal projections at multiple subcortical areas (FIG. 7B), and axon density of the intact side in the spinal cord (FIGS. 8E and 8F), all images used for analysis under multiple conditions were taken using the same optical parameters and avoided for saturation. […]

Another series has as its system CST axons. Nature of the series: CST regrowth (axon regeneration and midline-crossing sprouting) after T10 lateral hemisection. It is filed as in vivo, mouse. To be noted: AAV-expressed; for regrowth of injured CST axons at the lesion site: horizontal sections covering the lesion; for sprouting of intact CST axons across midline into the denervated side: spinal levels below the injury site. From the text: Since the mice treated with AAV-OPN/IGF1 were co-injected with AAV-channel rhodopsin (ChR2)-mCherry (AAV-ChR2-mCherry) or AAV-ChR2-YFP to the ipsi-lateral or contra-lateral cortex, respectively, at the termination of behavioral assessment, a post hoc examination of the T10 lateral hemisection histology was first performed. Mice with incomplete- or over-hemisection could be readily identified by analyzing labeled CST axons at the lumbar spinal cord and excluded from further analysis (FIG. 2A). CST regrowth was examined by preparing horizontal spinal cord sections covering the lesion sites to assess axon regeneration across the lesion site, and transverse sections of lower spinal cord segments to assess midline-crossing of CST axons from intact side. […] Thus, these sprouting axons play an important role in the observed functional recovery. Therefore, combined treatment of AAV-OPN and AAV-IGF1 not only promotes CST regrowth but also CST-dependent behavioral performance.
Axon Counting and Quantification. To quantify the number of sprouting axons, a horizontal line was firstly drawn through the central canal and across the lateral rim of the gray matter. Three vertical lines (Mid, Z1, and Z2) were drawn to divide the horizontal line into three equal parts, starting from the central canal to the lateral rim. While Mid denotes midline crossing fibers, Z1 and Z2 are for sprouting fibers at different distance from the midline. Only fibers crossing the three lines were counted on each section. The results were presented after normalization with the number of counted CST fibers at the medulla level.
For quantifying total labeled CST axon, AAV-ChR2-YFP (FIG. 4D) or AAV-ChR2-mCherry (FIGS. 4C, 7E and 8E) labeled CST fibers were counted at the level of medulla oblongata 1 mm proximal to the pyramidal decussation. Axons were estimated by counting 4 rectangular areas (about 10000 μm^2/area) per section on two adjacent sections.
To quantify the regenerating axons (FIG. 4D), the number of intersections of chR2-YFP-labeled fibers with a dorsal-ventral line positioned at a defined distance caudal from the lesion center was counted under a 25X objective. Fibers were counted on 3 sections with the main dorsal CST and 1-3 lateral sections with collaterals in the gray matter. The number of counted fibers was normalized by the number of labeled CST axons in the medulla and divided by the number of evaluated sections.

In series [1] the test system is mice with T10 lateral hemisection. In words: Irregular ladder walking after spinal cord T10 lateral hemisection. The format is in vivo, mouse. As to conditions: for error rate, irregular walking task, denervated hindlimb: 12 weeks after injury, AAV injected into sensorimotor cortex 1 day after injury; for performance in irregular ladder, overground, or treadmill walking: injured mice with AAV-OPN/IGF1 or AAV-PLAP, 14 weeks post injury, i.p., quipazine 0.2 mg/kg, 8-OH-DPAT 0.1 mg/kg, SKF 0.1 mg/kg. How it is done: (§4) Injury Models. […] Briefly, a midline incision was made over the thoracic vertebrae, followed by a T10 laminectomy. The unilateral hemisection was then performed carefully using both scalpel and micro-scissors, avoiding, to the greatest extent, the damage of the spinal cord dura. The muscle layers were then sutured and the skin was secured with wound clips. All mice received post hoc histological analysis and those with spared CST axons (incomplete lateral hemisection) or with significant less CST axons on the contra-lesional side (over lateral hemisection) at the lumbar spinal cord (L3), exemplified in FIG. 9A, were excluded for behavioral analysis.
Virus and Protein Injection.
Irregular Ladder Walking. […] Briefly, the ladder was elevated 30 cm above the ground. […] To prevent animals from learning the pattern, the irregular pattern was changed from trial to trial. All trials were video recorded (Hotshot e64, 100 fps) and paw placement was analyzed twice by blinded observers. Steps with precise placement of the center of the palm on the rung (for both forelimbs and hindlimbs) and digits closed (for forelimbs) were defined as correct steps (hit). All other steps were recorded as errors, which included two types: 1) Miss: when crossing the ladder, the forelimb/hindlimb either completely miss the rung or contact the rung with the wrist/heel instead of the paw; 2) Slip: when crossing the ladder, the mice use a few digits instead of the paw to place on the rungs, causing the subsequent slip on the rungs. The results were expressed as both percentage of total errors and percentage of different placement categories (hit, miss and slip).
(§5) Pharmacological Treatment. […] All behavioral tests were then accomplished between 1-3 hours post administration.

The subject of a further series is p-S6. In words: phospho-S6 immunostaining (mTOR activation) in corticospinal neurons after cortical injection of recombinant proteins, T10 lateral hemisection. It is filed as in vivo, mouse. To be noted: intact and axotomized CSNs; recombinant proteins injected into cortex.
Source text: as §1, §2, §3

The test system of series [2] is mice with T10 lateral hemisection. In words: Ground walking and treadmill walking after T10 lateral hemisection. It is filed as in vivo, mouse. To be noted: i.p. The procedure: as §4, §5
The subject of another series is injured mice. Nature of the series: Adverse effects of systemic potassium channel blockers in injured mice. The format is in vivo. To be noted: doses above 1 mg/kg (3 mg/kg tested), injured mice. How it is done:
Chemicals and Antibodies. For systematic administration (i.p.), Quipazine [Sigma (Q1004), 0.2 mg/kg), SKF-82197 [Tocris (1447) 0.1 mg/kg], and 8-OH-DPAT [Tocris (0529), 0.1 mg/kg), 4AP [Sigma (275875), 1 mg/kg, 3 mg/kg), 4AP-MeOH [Santa Cruz (sc-267247), (1 mg/kg)] were dissolved in saline. Tamoxifen (Sigma, 10540-29-1) was dissolved in oil. For diphtheria toxin mediated cell ablation, we purchased the diptheria toxin from Sigma (D0564). For immunostaining, the primary antibody used were chicken anti-GFP [Abcam (Cat: ab13970)], rabbit anti-RFP [Abcam (Cat: ab34771)], rabbit anti-PKCγ [Santa Cruz (sc211)], rabbit anti-GFAP [DAKO (Z0334)]; rabbit anti-5-HT [Immunostar (20080)], rabbit-anti-IGFR [Santa Cruz (sc-712)] rabbit-anti-pIGFR[3 [Cell signaling technology (3024)], rabbit-anti-pS6 [Cell signaling technology (4857)], rat anti-CD68 [Bio-Rad (MCA 1957)], and Guinea pig-anti-Vglut1 [Synaptic Systems (135304)].
Pharmacological Treatment. […] A pilot experiment was performed and determined that 4AP (1 mg/kg, 3 mg/kg) and 4AP-MeOH (1 mg/kg) achieved their maximal effects within 1-3 hours post systematic administration (i.p.). […]

With “IGF1: recombinant human insulin-like growth factor 1 (Peprotech)”, in the series on optic nerve axons (combined with OPN), the “dose dependence of the regenerative effect” value is given as “dosage dependent”. For the same molecule, the “effect on p-IGFRβ” value in the series with p-IGFRβ is reported as “no overt effect”. Besides, in the series with CST axons, the “regrowth of injured CST axons at the lesion site” value is “significant die-back from the lesion site” and the “sprouting of intact CST axons across midline into the denervated side” value was “little sprouting across midline”. In addition, the “error rate, irregular walking task, denervated hindlimb” value in series [1] is on record as approximately 70%. Moreover, the “effect on p-S6 levels” value with p-S6 is given as “not IGF1 or OPN alone”.
In the case of `Nc1ccncc1` [4-AP, 4-aminopyridine], the “recovery of treadmill walking performance compared to the control” value in series [2] is given as “neither 4-AP nor 4-AP-MeOH had significant effects”. Moreover, the “error rates, irregular ladder walking task” value in series [1] (1 mg/kg i.p., mice with OPN/IGF1 treatment) is “showed a trend of reducing the error rates in mice with OPN/IGF1 treatment, but failed to reach statistical significance”. Also, the “adverse effect at higher doses” value in the series with injured mice was “seizures”.
Take `CCCN(CCC)C1CCc2cccc(O)c2C1` (stereo not drawn) [8-OH-DPAT]: in series [1], the “performance in irregular ladder, overground, or treadmill walking” value (shortened to “performance … or treadmill walking”) was “failed to improve”.
On to “OPN: recombinant osteopontin (OPN) protein (Peprotech), injected into cortex or intravitreally”, for which the “effect of OPN added to CNTF on optic nerve axon regeneration” value in the series on optic nerve axons (OPN with CNTF) is given as “no added effect”. Moreover, the “effect of recombinant OPN protein on the optic nerve” value in the series on optic nerve axons (intravitreal application, combined with IGF1 (FIG. 20)) was “pro-regenerative effects”. Also, the “effect on p-IGFRβ” value in the series with p-IGFRβ was “no overt effect”. In the series with CST axons, the “regrowth of injured CST axons at the lesion site” value is on record as “significant die-back from the lesion site” and the “sprouting of intact CST axons across midline into the denervated side” value is reported as “little sprouting across midline”. Also, in series [1], the “error rate, irregular walking task, denervated hindlimb” value is recorded as approximately 70%. Moreover, the “effect on p-S6 levels” value with p-S6 was “not IGF1 or OPN alone”.
In the case of `Oc1cc2c(c(Cl)c1O)CCNCC2c1ccccc1` (stereo not drawn) [SKF], in series [1], the “performance … or treadmill walking” value is “failed to improve”. In series [1] (injured mice, i.p. 0.1 mg/kg), the “hindlimb performance in irregular ladder walking on the denervated side” value is reported as “deteriorated the hindlimb performance”.
As for `c1ccc2nc(N3CCNCC3)ccc2c1` [quipazine], in series [1], the “performance … or treadmill walking” value is listed as “failed to improve”.

B1: recombinant CNTF: recombinant CNTF protein injected after optic nerve crush (protein, UniProt P26441 1-200, looked up)
Ciliary neurotrophic factor: MAFTEHSPLTPHRRDLCSRSIWLARKIRSDLTALTESYVKHQGLNKNINLDSADGMPVASTDQWSELTEAERLQENLQAYRTFHVLLARLLEDQQVHFTPTEGDFHQAIHTLLLQVAAFAYQIEELMILLEYKIPRNEADGMPINVGDGGLFEKKLWGLKVLQELSQWTVRSIHDLRFISSHQTGIPARGSHYIANNKKM
B1: in the series on optic nerve axons (intravitreal AAV 2 weeks before crush, recombinant proteins at 0 and 7 days after crush (1 ul, 1 ug/ul), 14 days after crush), the optic nerve regeneration entry was “no effect”.
